Test results reported in PubChem BioAssay (NCI).
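GI50 = concentration required for 50% inhibition of growth. TGI denotes the concentration required for complete inhibition of growth.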

Tests used:
Test in all cases: inhibition of tumour cell growth, NCI panel, 384-well format
NCI-H460 NSCLC = test system: NCI-H460 NSCLC
MDA-MB-231 breast = test system: MDA-MB-231 breast
KM12 colon = test system: KM12 colon
NCI-H522 lung = test system: NCI-H522 lung
MCF7 breast = test system: MCF7 breast
NCI-H23 lung = test system: NCI-H23 lung
BT-549 breast = test system: BT-549 breast
HCC-2998 colon = test system: HCC-2998 colon
HL-60(TB) leukemia = test system: HL-60(TB) leukemia
A498 renal = test system: A498 renal
SF-268 CNS = test system: SF-268 CNS
CAKI-1 renal = test system: CAKI-1 renal
NCI-H322M lung = test system: NCI-H322M lung
OVCAR-5 ovarian = test system: OVCAR-5 ovarian
PC-3 prostate = test system: PC-3 prostate
SF-539 CNS = test system: SF-539 CNS
T-47D breast = test system: T-47D breast
SK-OV-3 ovarian = test system: SK-OV-3 ovarian
HT29 colon = test system: HT29 colon
HCT-15 colon = test system: HCT-15 colon
ACHN renal = test system: ACHN renal
OVCAR-8 ovarian = test system: OVCAR-8 ovarian
SK-MEL-2 melanoma = test system: SK-MEL-2 melanoma
UACC-62 melanoma = test system: UACC-62 melanoma
HS 578T breast = test system: HS 578T breast
U251 glioblastoma = test system: U251 glioblastoma
786-0 renal = test system: 786-0 renal
A549 NSCLC = test system: A549 NSCLC
MOLT-4 leukemia = test system: MOLT-4 leukemia
EKVX NSCLC = test system: EKVX NSCLC
DU-145 prostate = test system: DU-145 prostate
IGROV1 ovarian = test system: IGROV1 ovarian
RPMI-8226 leukemia = test system: RPMI-8226 leukemia
SF-295 CNS = test system: SF-295 CNS
OVCAR-3 ovarian = test system: OVCAR-3 ovarian
HOP-62 NSCLC = test system: HOP-62 NSCLC
RXF 393 renal = test system: RXF 393 renal
M14 melanoma = test system: M14 melanoma
SR leukemia = test system: SR leukemia
HOP-92 NSCLC = test system: HOP-92 NSCLC
SN12C renal = test system: SN12C renal
SNB-19 CNS = test system: SNB-19 CNS
SK-MEL-28 melanoma = test system: SK-MEL-28 melanoma
MALME-3M melanoma = test system: MALME-3M melanoma
NCI-H226 lung = test system: NCI-H226 lung
SW-620 colon = test system: SW-620 colon
SK-MEL-5 melanoma = test system: SK-MEL-5 melanoma
MDA-MB-468 breast = test system: MDA-MB-468 breast
UACC-257 melanoma = test system: UACC-257 melanoma
COLO 205 colon = test system: COLO 205 colon
TK-10 renal = test system: TK-10 renal
MDA-MB-435 melanoma = test system: MDA-MB-435 melanoma
NCI/ADR-RES ovarian = test system: NCI/ADR-RES ovarian
OVCAR-4 ovarian = test system: OVCAR-4 ovarian
CCRF-CEM leukemia = test system: CCRF-CEM leukemia

Which GI50 (NCI-H460 NSCLC) does the source give for `Cn1cc(C[C@@H](N)C(=O)O)c2ccccc21` here?
Its GI50 is greater than 100 µM.

What about the TGI (NCI-H460 NSCLC) of the same compound?
The TGI was greater than 100 µM.

And the GI50 (MDA-MB-231 breast)?
The GI50 was greater than 100 µM.

And the TGI (MDA-MB-231 breast)?
Its TGI is greater than 100 µM.

And the GI50 (KM12 colon)?
Its GI50 is greater than 100 µM.

What about the TGI (KM12 colon) of the same compound?
The TGI was greater than 100 µM.

And the GI50 (NCI-H522 lung)?
Its GI50 is greater than 100 µM.

What about the TGI (NCI-H522 lung) of the same compound?
Its TGI is greater than 100 µM.

And the GI50 (MCF7 breast)?
Its GI50 is greater than 100 µM.

And the TGI (MCF7 breast)?
Its TGI is greater than 100 µM.

What about the GI50 (NCI-H23 lung) of the same compound?
The GI50 was greater than 100 µM.

What about the TGI (NCI-H23 lung) of the same compound?
Its TGI is greater than 100 µM.

What about the GI50 (BT-549 breast) of the same compound?
The GI50 was greater than 100 µM.

What about the TGI (BT-549 breast) of the same compound?
Its TGI is greater than 100 µM.

What about the GI50 (HCC-2998 colon) of the same compound?
Its GI50 is greater than 100 µM.

And the TGI (HCC-2998 colon)?
Its TGI is greater than 100 µM.

And the GI50 (HL-60(TB) leukemia)?
Its GI50 is greater than 100 µM.

What about the TGI (HL-60(TB) leukemia) of the same compound?
The TGI was greater than 100 µM.

And the GI50 (A498 renal)?
The GI50 was greater than 100 µM.

What about the TGI (A498 renal) of the same compound?
The TGI was greater than 100 µM.

What about the GI50 (SF-268 CNS) of the same compound?
The GI50 was greater than 100 µM.

What about the TGI (SF-268 CNS) of the same compound?
Its TGI is greater than 100 µM.

What about the GI50 (CAKI-1 renal) of the same compound?
Its GI50 is greater than 100 µM.

And the TGI (CAKI-1 renal)?
Its TGI is greater than 100 µM.

And the GI50 (NCI-H322M lung)?
The GI50 was greater than 100 µM.

What about the TGI (NCI-H322M lung) of the same compound?
The TGI was greater than 100 µM.

What about the GI50 (OVCAR-5 ovarian) of the same compound?
Its GI50 is greater than 100 µM.

And the TGI (OVCAR-5 ovarian)?
The TGI was greater than 100 µM.

And the GI50 (PC-3 prostate)?
Its GI50 is greater than 100 µM.

And the TGI (PC-3 prostate)?
The TGI was greater than 100 µM.

What about the GI50 (SF-539 CNS) of the same compound?
The GI50 was greater than 100 µM.

And the TGI (SF-539 CNS)?
The TGI was greater than 100 µM.

What about the GI50 (T-47D breast) of the same compound?
The GI50 was greater than 100 µM.

And the TGI (T-47D breast)?
The TGI was greater than 100 µM.

What about the GI50 (SK-OV-3 ovarian) of the same compound?
The GI50 was greater than 100 µM.

And the TGI (SK-OV-3 ovarian)?
Its TGI is greater than 100 µM.

And the GI50 (HT29 colon)?
The GI50 was greater than 100 µM.

And the TGI (HT29 colon)?
The TGI was greater than 100 µM.

What about the GI50 (HCT-15 colon) of the same compound?
The GI50 was greater than 100 µM.

And the TGI (HCT-15 colon)?
Its TGI is greater than 100 µM.

What about the GI50 (ACHN renal) of the same compound?
Its GI50 is greater than 100 µM.

What about the TGI (ACHN renal) of the same compound?
The TGI was greater than 100 µM.

What about the GI50 (OVCAR-8 ovarian) of the same compound?
The GI50 was greater than 100 µM.

And the TGI (OVCAR-8 ovarian)?
The TGI was greater than 100 µM.

And the GI50 (SK-MEL-2 melanoma)?
The GI50 was greater than 100 µM.

And the TGI (SK-MEL-2 melanoma)?
Its TGI is greater than 100 µM.

And the GI50 (UACC-62 melanoma)?
The GI50 was greater than 100 µM.

And the TGI (UACC-62 melanoma)?
Its TGI is greater than 100 µM.

What about the GI50 (HS 578T breast) of the same compound?
Its GI50 is greater than 100 µM.

And the TGI (HS 578T breast)?
Its TGI is greater than 100 µM.

And the GI50 (U251 glioblastoma)?
The GI50 was greater than 100 µM.

And the TGI (U251 glioblastoma)?
The TGI was greater than 100 µM.

And the GI50 (786-0 renal)?
The GI50 was greater than 100 µM.

And the TGI (786-0 renal)?
Its TGI is greater than 100 µM.

And the GI50 (A549 NSCLC)?
The GI50 was greater than 100 µM.

And the TGI (A549 NSCLC)?
The TGI was greater than 100 µM.

What about the GI50 (MOLT-4 leukemia) of the same compound?
Its GI50 is greater than 100 µM.

What about the TGI (MOLT-4 leukemia) of the same compound?
The TGI was greater than 100 µM.

What about the GI50 (EKVX NSCLC) of the same compound?
Its GI50 is greater than 100 µM.

What about the TGI (EKVX NSCLC) of the same compound?
The TGI was greater than 100 µM.

And the GI50 (DU-145 prostate)?
The GI50 was greater than 100 µM.

What about the TGI (DU-145 prostate) of the same compound?
The TGI was greater than 100 µM.

And the GI50 (IGROV1 ovarian)?
Its GI50 is greater than 100 µM.

What about the TGI (IGROV1 ovarian) of the same compound?
The TGI was greater than 100 µM.

What about the GI50 (RPMI-8226 leukemia) of the same compound?
Its GI50 is greater than 100 µM.

And the TGI (RPMI-8226 leukemia)?
Its TGI is greater than 100 µM.

What about the GI50 (SF-295 CNS) of the same compound?
Its GI50 is greater than 100 µM.

And the TGI (SF-295 CNS)?
Its TGI is greater than 100 µM.

What about the GI50 (OVCAR-3 ovarian) of the same compound?
Its GI50 is greater than 100 µM.

And the TGI (OVCAR-3 ovarian)?
Its TGI is greater than 100 µM.

What about the GI50 (HOP-62 NSCLC) of the same compound?
Its GI50 is greater than 100 µM.

And the TGI (HOP-62 NSCLC)?
Its TGI is greater than 100 µM.

And the GI50 (RXF 393 renal)?
Its GI50 is greater than 100 µM.

What about the TGI (RXF 393 renal) of the same compound?
The TGI was greater than 100 µM.

And the GI50 (M14 melanoma)?
The GI50 was greater than 100 µM.

What about the TGI (M14 melanoma) of the same compound?
Its TGI is greater than 100 µM.

What about the GI50 (SR leukemia) of the same compound?
Its GI50 is greater than 100 µM.

What about the TGI (SR leukemia) of the same compound?
Its TGI is greater than 100 µM.

What about the GI50 (HOP-92 NSCLC) of the same compound?
The GI50 was greater than 100 µM.

What about the TGI (HOP-92 NSCLC) of the same compound?
Its TGI is greater than 100 µM.

And the GI50 (SN12C renal)?
The GI50 was greater than 100 µM.

What about the TGI (SN12C renal) of the same compound?
Its TGI is greater than 100 µM.

What about the GI50 (SNB-19 CNS) of the same compound?
Its GI50 is greater than 100 µM.

What about the TGI (SNB-19 CNS) of the same compound?
The TGI was greater than 100 µM.

What about the GI50 (SK-MEL-28 melanoma) of the same compound?
Its GI50 is greater than 100 µM.

And the TGI (SK-MEL-28 melanoma)?
The TGI was greater than 100 µM.

And the GI50 (MALME-3M melanoma)?
Its GI50 is greater than 100 µM.

What about the TGI (MALME-3M melanoma) of the same compound?
The TGI was greater than 100 µM.

And the GI50 (NCI-H226 lung)?
Its GI50 is greater than 100 µM.

And the TGI (NCI-H226 lung)?
Its TGI is greater than 100 µM.

What about the GI50 (SW-620 colon) of the same compound?
The GI50 was greater than 100 µM.

And the TGI (SW-620 colon)?
The TGI was greater than 100 µM.

And the GI50 (SK-MEL-5 melanoma)?
Its GI50 is greater than 100 µM.

What about the TGI (SK-MEL-5 melanoma) of the same compound?
The TGI was greater than 100 µM.

And the GI50 (MDA-MB-468 breast)?
Its GI50 is greater than 100 µM.

What about the TGI (MDA-MB-468 breast) of the same compound?
The TGI was greater than 100 µM.

What about the GI50 (UACC-257 melanoma) of the same compound?
Its GI50 is greater than 100 µM.

What about the TGI (UACC-257 melanoma) of the same compound?
The TGI was greater than 100 µM.

And the GI50 (COLO 205 colon)?
The GI50 was greater than 100 µM.

And the TGI (COLO 205 colon)?
The TGI was greater than 100 µM.

And the GI50 (TK-10 renal)?
The GI50 was greater than 100 µM.

And the TGI (TK-10 renal)?
The TGI was greater than 100 µM.

What about the GI50 (MDA-MB-435 melanoma) of the same compound?
Its GI50 is greater than 100 µM.

What about the TGI (MDA-MB-435 melanoma) of the same compound?
The TGI was greater than 100 µM.

And the GI50 (NCI/ADR-RES ovarian)?
The GI50 was greater than 100 µM.

And the TGI (NCI/ADR-RES ovarian)?
Its TGI is greater than 100 µM.

What about the GI50 (OVCAR-4 ovarian) of the same compound?
The GI50 was greater than 100 µM.

What about the TGI (OVCAR-4 ovarian) of the same compound?
Its TGI is greater than 100 µM.

What about the GI50 (CCRF-CEM leukemia) of the same compound?
Its GI50 is greater than 100 µM.

What about the TGI (CCRF-CEM leukemia) of the same compound?
The TGI was greater than 100 µM.
